Measurements taken from ChEMBL document CHEMBL4828764, “Lead Optimization and Structure-Activity Relationship Studies on Myeloid Ecotropic Viral Integration Site 1 Inhibitor” (J Med Chem, 2021).
The source made the active and inactive calls. No cut-off for these calls is given here.

Legend:
Format in all cases: cell-based
[1] = molecular target: T1, Homeobox protein Meis1 (Homo sapiens) (UniProt O00470); test: Inhibition of MEIS1 (unknown origin) expressed in HEK293T cells co-expressing MEIS-Luc-pGL2 assessed as luciferase activity at 10 uM incubated for 48 hrs by luciferase reporter assay related to […] control; set-up: scale not given: the % may be the effect or the level left
T1 sequence (whole entry): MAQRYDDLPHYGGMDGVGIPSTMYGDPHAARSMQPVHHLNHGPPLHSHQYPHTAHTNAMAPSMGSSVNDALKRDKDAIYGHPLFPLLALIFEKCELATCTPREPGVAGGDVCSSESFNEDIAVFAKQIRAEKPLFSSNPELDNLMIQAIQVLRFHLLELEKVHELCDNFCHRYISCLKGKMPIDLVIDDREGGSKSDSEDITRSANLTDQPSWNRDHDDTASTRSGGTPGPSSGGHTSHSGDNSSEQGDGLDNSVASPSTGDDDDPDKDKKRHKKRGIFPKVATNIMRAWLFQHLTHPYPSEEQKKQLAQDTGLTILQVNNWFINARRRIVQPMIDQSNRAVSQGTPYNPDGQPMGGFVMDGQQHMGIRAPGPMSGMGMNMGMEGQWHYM

[2] = molecular target: T1, Homeobox protein Meis1 (Homo sapiens); test: Inhibition of MEIS1 (unknown origin) expressed in HEK293T cells co-expressing MEIS-Luc-pGL2 assessed as luciferase activity at 10 uM incubated for 48 hrs by luciferase reporter assay related to protein content; set-up: scale not given: the % may be the effect or the level left
[3] = molecular target: T1, Homeobox protein Meis1 (Homo sapiens); test: Inhibition of MEIS1 (unknown origin) expressed in HEK293T cells co-expressing MEIS-Luc-pGL2 assessed as downregulation of Hif-Ialpha gene expression measuring mRNA level at 10 uM incubated for 2 days by RT-qPCR analysis; settings: time 2.0 day
[4] = Cytotoxicity against HDF assessed as cell viability at 10 uM incubated for 72 hrs by MTS assay; settings: human, HDF (NHDF) cells, read-out: Activity
[5] = molecular target: T1, Homeobox protein Meis1 (Homo sapiens); test: Inhibition of MEIS1 (unknown origin) expressed in HEK293T cells co-expressing MEIS-Luc-pGL2 assessed as downregulation of p21 gene expression by measuring mRNA level at 10 uM incubated for 2 days by RT-qPCR analysis; set-up: scale not given: the % may be the effect or the level left; settings: time 2.0 day
[6] = molecular target: T1, Homeobox protein Meis1 (Homo sapiens); test: Inhibition of MEIS1 (unknown origin) expressed in HEK293T cells co-expressing MEIS-Luc-pGL2 assessed as downregulation of Meis1 gene expression measuring mRNA level at 10 uM incubated for 2 days by RT-qPCR analysis; set-up: scale not given: the % may be the effect or the level left; settings: time 2.0 day

## O=C(COc1ccc(C(=O)Nc2ccccc2F)cc1)NCc1ccccc1Cl
[1]
  Activity: 62%
[2]
  Activity: 64%

## Cc1cccc(NC(=O)c2ccc(OCC(=O)NCc3cccc(C(F)(F)F)c3)cc2)c1C
[1]
  Activity: 106%
[2]
  Activity: 57%

## Cc1ccc(CNC(=O)COc2ccc(C(=O)Nc3cccc(C)c3C)cc2)cc1
[1]
  Activity: 51%
[2]
  Activity: 48%

## O=C(COc1ccc(C(=O)Nc2ccc(Oc3ccc(Br)cc3)cc2)cc1)NCc1ccccc1Cl
[1]
  Activity: 82%
[2]
  Activity: 82%

## COc1ccc(CNC(=O)COc2ccc(C(=O)Nc3ccccc3)cc2)cc1
[1]
  Activity: 43%
[2]
  Activity: 43%

## O=C(COc1ccc(C(=O)Nc2ccc(F)cc2)cc1)NCc1ccccc1Cl
[1]
  Activity: 50%
[2]
  Activity: 51%

## O=C(COc1ccc(C(=O)Nc2cccc(C(F)(F)F)c2)cc1)NCc1ccccc1Cl
[1]
  Activity: 57%
[2]
  Activity: 64%

## Cc1cccc(NC(=O)c2ccc(OCC(=O)NCc3ccc(F)cc3)cc2)c1C
[1]
  Activity: 36%
[2]
  Activity: 40%
[3]
  Activity: Active
[4]
  viability at 72 h, 10 µM: 90.4%
[5]
  Activity: 25.6%
[6]
  Activity: 24.3%

## COc1ccc(CNC(=O)COc2ccc(C(=O)Nc3cccc(C(F)(F)F)c3)cc2)cc1
[1]
  Activity: 1%
[2]
  Activity: 1%
[3]
  Activity: Active
[4]
  viability at 72 h, 10 µM: 76%
[5]
  Activity: 49.5%
[6]
  Activity: 15.1%

## O=C(COc1ccc(C(=O)Nc2ccc(Oc3ccc(Br)cc3)cc2)cc1)NCc1ccc(Cl)cc1
[1]
  Activity: 42%
[2]
  Activity: 72%

## O=C(COc1ccc(C(=O)Nc2ccc(F)cc2)cc1)NCc1ccc(Cl)cc1
[1]
  Activity: 43%
[2]
  Activity: 69%

## Cc1cccc(NC(=O)c2ccc(OCC(=O)NCc3ccc(Cl)cc3Cl)cc2)c1C
[1]
  Activity: 61%
[2]
  Activity: 52%

## COc1ccc(CNC(=O)COc2ccc(C(=O)Nc3ccc(Oc4ccc(Br)cc4)cc3)cc2)cc1
[1]
  Activity: 45%
[2]
  Activity: 37%

## CCc1cccc(NC(=O)c2ccc(OCC(=O)NCc3ccccc3Cl)cc2)c1
[1]
  Activity: 41%
[2]
  Activity: 42%

## CCc1cccc(NC(=O)c2ccc(OCC(=O)NCc3ccc(Cl)cc3)cc2)c1
[1]
  Activity: 49%
[2]
  Activity: 69%

## O=C(COc1ccc(C(=O)Nc2ccccc2)cc1)NCc1ccc(Cl)cc1
[1]
  Activity: 75%
[2]
  Activity: 83%

## COc1ccc(CNC(=O)COc2ccc(C(=O)Nc3cccc(Cl)c3)cc2)cc1
[1]
  Activity: 5%
[2]
  Activity: 5%
[3]
  Activity: Active
[4]
  viability at 72 h, 10 µM: 90%
[5]
  Activity: 12.7%
[6]
  Activity: 5.9%

## COc1ccc(CNC(=O)COc2ccc(C(=O)Nc3cccc(C)c3C)cc2)c(OC)c1
[1]
  Activity: 17%
[2]
  Activity: 50%

## COc1ccc(CNC(=O)COc2ccc(C(=O)Nc3cc(C(F)(F)F)ccc3F)cc2)cc1
[1]
  Activity: 30%
[2]
  Activity: 28%
[3]
  Activity: Active
[4]
  viability at 72 h, 10 µM: 105%
[5]
  Activity: 5.2%
[6]
  Activity: 6.6%

## O=C(COc1ccc(C(=O)Nc2cccc(Cl)c2)cc1)NCc1ccc(Cl)cc1
[1]
  Activity: 32%
[2]
  Activity: 51%
[3]
  Activity: Active
[4]
  viability at 72 h, 10 µM: 86.4%
[5]
  Activity: 19.7%
[6]
  Activity: 4.5%

## CCc1ccccc1NC(=O)c1ccc(OCC(=O)NCc2ccccc2Cl)cc1
[1]
  Activity: 66%
[2]
  Activity: 63%

## O=C(COc1ccc(C(=O)Nc2ccccc2)cc1)NCc1ccccc1Cl
[1]
  Activity: 48%
[2]
  Activity: 54%

## COc1ccc(CNC(=O)COc2ccc(C(=O)Nc3ccccc3F)cc2)cc1
[1]
  Activity: 70%
[2]
  Activity: 66%

## CCc1ccccc1NC(=O)c1ccc(OCC(=O)NCc2ccc(Cl)cc2)cc1
[1]
  Activity: 36%
[2]
  Activity: 51%
[3]
  Activity: Active
[4]
  viability at 72 h, 10 µM: 31.3%
[5]
  Activity: 139%
[6]
  Activity: 19.2%

## Cc1cccc(C)c1NC(=O)c1ccc(OCC(=O)NCc2ccccc2Cl)cc1
[1]
  Activity: 58%
[2]
  Activity: 53%

## Cc1cccc(NC(=O)c2ccc(OCC(=O)NCc3ccccc3)cc2)c1C
[1]
  Activity: 69%
[2]
  Activity: 66%
[5]
  Activity: 17.8%
[6]
  Activity: 12%

## CCc1ccccc1NC(=O)c1ccc(OCC(=O)NCc2ccc(OC)cc2)cc1
[1]
  Activity: 20%
[2]
  Activity: 19%
[3]
  Activity: Active
[4]
  viability at 72 h, 10 µM: 78%
[5]
  Activity: 8.5%
[6]
  Activity: 8.3%

## Cc1cccc(NC(=O)c2ccc(OCC(=O)NCc3ccc(Cl)c(Cl)c3)cc2)c1C
[1]
  Activity: 47%
[2]
  Activity: 57%

## Cc1cccc(NC(=O)c2ccc(OCC(=O)NCc3ccc(Cl)cc3)cc2)c1C
[1]
  Activity: 34%
[2]
  Activity: 38%
[3]
  Activity: Active
[4]
  viability at 72 h, 10 µM: 73.5%
[5]
  Activity: 47.4%
[6]
  Activity: 35.9%

## Cc1cccc(NC(=O)c2ccc(OCC(=O)NCc3ccc(C(F)(F)F)cc3)cc2)c1C
[1]
  Activity: 81%
[2]
  Activity: 26%

## Cc1cccc(NC(=O)c2ccc(OCC(=O)NCc3ccc4c(c3)OCO4)cc2)c1C
[1]
  Activity: 54%
[2]
  Activity: 52%

## COc1ccc(CNC(=O)COc2ccc(C(=O)Nc3c(C)cccc3C)cc2)cc1
[1]
  Activity: 62%
[2]
  Activity: 58%

## O=C(COc1ccc(C(=O)Nc2cccc(C(F)(F)F)c2)cc1)NCc1ccc(Cl)cc1
[1]
  Activity: 44%
[2]
  Activity: 46%

## Cc1cccc(NC(=O)c2ccc(OCC(=O)NCc3ccc([N+](=O)[O-])cc3)cc2)c1C
[1]
  Activity: 144%
[2]
  Activity: 23%

## COc1ccc(NC(=O)c2ccc(OCC(=O)NCc3ccccc3Cl)cc2)cc1OC
[1]
  Activity: 82%
[2]
  Activity: 80%

## Cc1cccc(C)c1NC(=O)c1ccc(OCC(=O)NCc2ccc(Cl)cc2)cc1
[1]
  Activity: 55%
[2]
  Activity: 77%

## COc1ccc(NC(=O)c2ccc(OCC(=O)NCc3ccc(Cl)cc3)cc2)cc1OC
[1]
  Activity: 45%
[2]
  Activity: 56%

## Cc1cccc(NC(=O)c2ccc(OCC(=O)NCc3ccccc3Cl)cc2)c1C
[1]
  Activity: 34%
[2]
  Activity: 43%
[3]
  Activity: Active
[4]
  viability at 72 h, 10 µM: 64.8%
[5]
  Activity: 25.3%
[6]
  Activity: 13.7%

## COc1ccc(CNC(=O)COc2ccc(C(=O)Nc3ccc(F)cc3)cc2)cc1
[1]
  Activity: 31%
[2]
  Activity: 25%
[3]
  Activity: Active
[4]
  viability at 72 h, 10 µM: 86.2%
[5]
  Activity: 20.3%
[6]
  Activity: 7.5%

## COc1ccc(CNC(=O)COc2ccc(C(=O)Nc3ccc(OC)c(OC)c3)cc2)cc1
[1]
  Activity: 70%
[2]
  Activity: 63%

## COc1ccc(CNC(=O)COc2ccc(C(=O)Nc3cccc(C)c3C)cc2)cc1OC
[1]
  Activity: 35%
[2]
  Activity: 49%
[3]
  Activity: Active
[4]
  viability at 72 h, 10 µM: 83.9%
[5]
  Activity: 21.7%
[6]
  Activity: 9.5%

## Cc1cccc(NC(=O)c2ccc(OCC(=O)NCc3cccc(Cl)c3Cl)cc2)c1C
[1]
  Activity: 161%
[2]
  Activity: 48%

## COc1ccc(CNC(=O)COc2ccc(C(=O)Nc3cccc(C)c3C)cc2)cc1
[1]
  Activity: 48%
[2]
  Activity: 50.6%
[3]
  Activity: Active
[4]
  viability at 72 h, 10 µM: 86.3%
[5]
  Activity: 15.7%
[6]
  Activity: 14.3%

## CCc1cccc(NC(=O)c2ccc(OCC(=O)NCc3ccc(OC)cc3)cc2)c1
[1]
  Activity: 51%
[2]
  Activity: 51%

## O=C(COc1ccc(C(=O)Nc2ccccc2F)cc1)NCc1ccc(Cl)cc1
[1]
  Activity: 40%
[2]
  Activity: 65%

## O=C(COc1ccc(C(=O)Nc2cccc(Cl)c2)cc1)NCc1ccccc1Cl
[1]
  Activity: 96%
[2]
  Activity: 88%
